Measured values from patent US20090170195A1, “CURCUMIN-HYALURONAN COMPOUNDS” (KENT STATE UNIVERSITY, priority 2007, published 2009).

Experiments:
MCF7 = settings: from Simon et al., Cancer Lett., (1998), 129, 111; cited from earlier work
MCF7 (Dox resistance) = assay: MTS cytotoxicity assay, MCF7 (Dox resistance); format: cell-based; settings: Homo sapiens, MTS cell viability
Procedure: (§1) Cytotoxicity effect of dissociable curcumin-hyaluronan complex, the curcumin-hyaluronan complex having a substantially non-acid labile covalent bond and free curcumin was detected by MTS (3-(4,5-dimethylthiazol-2yl)-5-(3-[…]-2-(4-sulfophenyl)-2H-tetrazolium) assay. The formazan color intensity was measured directly from 96 well plates in terms of absorbance at 490 nm and 630 nm using a 96-well multi-scanner (MRX Revelation; Dynex Technologies). For calculating cell viability (%) all the appropriate correction was made and the IC50 values were determined from sigmoidal fitting of the data. FIGS. 3-5 represent confocal microscopy images representing the uptake of curcumin and the dissociable complex into the C-13, NIH3T3 and RA-8001 cell lines.

RA-8001 = assay: MTS cytotoxicity assay, RA-8001; format: cell-based; settings: Homo sapiens; RA-8001, MTS cell viability
Procedure: as §1

NIH3T3 = assay: MTS cytotoxicity assay, NIH3T3; format: cell-based; settings: Mus musculus; NIH3T3, MTS cell viability
Procedure: as §1

C-13 = assay: MTS cytotoxicity assay, C-13; format: cell-based; settings: Homo sapiens, C13; C-13, MTS cell viability
Procedure: as §1

MDAMB231 = assay: MTS cytotoxicity assay, MDAMB231; format: cell-based; settings: Homo sapiens, MDA-MB-231; MDAMB231, MTS cell viability
Procedure: as §1

COc1cc(/C=C/C(=O)CC(=O)/C=C/c2ccc(O)c(OC)c2)ccc1O [Curcumin]
IC50 (MCF7): 15 µM | IC50 (MCF7 (Dox resistance)): 27.4 ± 0.892 µM | IC50 (RA-8001): 11.1 ± 2.3 µM | IC50 (NIH3T3): 23.9 ± 3.19 µM | IC50 (C-13): 22.2 µM | IC50 (MDAMB231): 27.5 ± 3.36 µM
